Data set [1] can be described thus: Micro conjugation (labeling of ≥0.1 mg monoclonal antibody): D/P, protein recovery, free dye. To be noted: 15 μg dye or commercial kit, mouse MAb. As for the experimental part: Another experiment set used inventive and commercial compounds, each as the NHS ester, in a micro conjugation (labeling of≥0.1 mg antibody). […] The antibodies were labeled and purified as described above.

Data set [2] in a line: Absorption/emission profiles and spectral properties of the dyes. It is filed as physicochemical. As for the experimental part:
The following properties of 679 Compound 1-NHS were compared with commercially available dyes.
Emission/excitation profiles for inventive and commercial compounds was determined by reconstituting the compounds in DMF at 10 mg/ml and then diluting in PBS buffer pH 7.2 to 10 μg/ml. Absorbance spectra were collected on Cary UV spectrophotometer and emission spectra were collected on Tecan Safire, shown in FIG. 1 where solid lines represent absorbance spectra and dashed lines represent emission spectra, for DyLight 680-NHS (purple), DyLight 680B-NHS (blue), 679 Compound 1-NHS (red), and Company B Compound-NHS (black). The maximum absorbance and emission for each compound is shown below.
The following properties of 679 Compound 1-NHS, 679 Compound 4/4-NHS (V08-15173), and 679 Compound 4/4-NHS (V10-04152) were compared with commercially available dyes.

Data set [3] deals with CEA. On the set-up: species or system nu/nu mice. The settings on record: mouse. As for the experimental part:
The inventive compounds are used for in vivo imaging as described in J. Gastrointest Surg (2008) 12:1938-1950. Briefly, human pancreatic cell lines are maintained in media supplemented with penicillin/streptomycin at 37° C. with 5% CO2. Mouse anti-CEA antibody and Control Mouse IgG (in PBS with 0.20% sodium azide) are conjugated to V08-15173. The dye is reconstituted at 10 mg/ml in DMF and then added to the antibody at a 10 molar excess. The reaction is carried out for one hour at room temperature. The samples are then dialyzed against 3×2 L of PBS. The cell lines are plated in 96-well plates at 5×10^4 cells per well. After 48 hours culture in appropriate media, the cells are incubated with 1 μg of V08-15173 labeled anti-CEA antibody or V08-15173-labeled control mouse IgG for four hours at 37° C. The cells are then washed three times with PBS and then imaged with an inverted Nikon De-485 microscope and Spot camera RD.
Surgical procedures and intravital imaging are performed with the animals anesthesized by intramuscular injection of 0.02 ml of 50% ketamine, 38% xylazine and 12 acepromazine maleate. Human pancreatic and colorectal cancer cell lines are harvested by trypsinization and washed twice with serum free medium and washed twice with serum-free medium. Cells (1×10^6 in 100 μl of serum-free media) are injected subcutaneously within 30 minutes of harvesting over the right flank in female nu/nu mice between 4-6 weeks of age. Subcutaneous tumors are allowed to grow for 7-14 days until they reached diameter of 1-2 mm prior to the delivery of conjugated antibody. For ASPC-1 implants, the cells are harvested by trpsinization and washed 3× in serum-free media. The cells are resuspended in serum-free media. The cells are resuspended in serum-free media at 5×10^6/ml. A volume of 200 μl of the cell suspension is then injected directly into the peritoneal cavity within 30 minutes of harvesting.
For antibody delivery, one to two weeks after subcutaneous, orthotopic, or intraperitoneal tumor implantation, animals are given intravenous (i.v.) injection of either conjugated anti-CEA or conjugated control IgG antibody diluted in PBS to a final volume of 100 μl. All i.v. injections are done via the tail vein. For the dose-response experiment, the antibody dose is 75 μg. For the in vivo time course, the animals are anesthesized and imaged at 30 min, 1, 2, 6, 24 hours and 8 and 15 days after systemic antibody delivery.
The inventive compounds are used for in vivo imaging as described in J. Gastrointest Surg (2008) 12:1938-1950. Briefly, human pancreatic cell lines are maintained in media supplemented with penicillin/streptomycin at 37° C. with 5% CO2. Mouse anti-CEA antibody and Control Mouse IgG (in PBS with 0.20% sodium azide) are conjugated to 779 Compound 1. […]

Where [4] appears, read: first property table of Example 6.
[5] abbreviates: second property table of Example 6.

Regarding CF 680-cytochrome C, in data set [1], the “% Free Dye” value was found to be 17%.

On to `COCC[N+]1=C(/C=C/C=C/C=C2/N(CCCCCC(=O)O)c3ccc4c(S(=O)(=O)[O-])cc(S(=O)(=O)[O-])cc4c3C2(C)C)C(C)(CCCS(=O)(=O)[O-])c2c1ccc1c(S(=O)(=O)[O-])cc(S(=O)(=O)[O-])cc21.[Na+].[Na+].[Na+].[Na+]` (single isomer, unassigned) [679 Compound 1/1 (Isomer 2), 2-{(1E,3E)-5-[3-(5-Carboxypentyl)-1,1-dimethyl-6,8-disulfo-1,3-dihydro-benzo[e]indol-(2E)-ylidene]-penta-1,3-dienyl}-3-(2-methoxy-ethyl)-1-methyl-6,8-disulfo-1-(3-sulfopropyl)-1H-benzo[e]indolium], for which the λem in data set [2] (PBS) is listed as 698 nm.

Turning to `COCC[N+]1=C(/C=C/C=C/C=C2/N(CCCCCC(=O)O)c3ccc4c(S(=O)(=O)[O-])cc(S(=O)(=O)[O-])cc4c3C2(C)C)C(C)(CCCS(=O)(=O)[O-])c2c1ccc1c(S(=O)(=O)[O-])cc(S(=O)(=O)[O-])cc21.[Na+].[Na+].[Na+].[Na+]` (single isomer, unassigned) [679 Compound 1/1 (Isomer 1), 2-{(1E,3E)-5-[3-(5-Carboxypentyl)-1,1-dimethyl-6,8-disulfo-1,3-dihydro-benzo[e]indol-(2E)-ylidene]-penta-1,3-dienyl}-3-(2-methoxy-ethyl)-1-methyl-6,8-disulfo-1-(3-sulfopropyl)-1H-benzo[e]indolium], in data set [2] (PBS), the “UV-vis (PBS): λmax” value came to 679 nm and the λem is listed as 698 nm.

Take `COCC[N+]1=C(/C=C/C=C/C=C/C=C2/N(CCCCCC(=O)O)c3ccc4c(S(=O)(=O)[O-])cc(S(=O)(=O)O)cc4c3C2(C)C)C(C)(CCCS(=O)(=O)O)c2c1ccc1c(S(=O)(=O)O)cc(S(=O)(=O)O)cc21` (stereo not drawn) [779 Compound 1]: the “Ex vivo analysis of the vital organs (in words)” value in data set [3] was “presence of dye predominantly in the liver with some signal detected in the spleen intestines and lungs”. Also, in data set [3] (in vivo), the “post-experiment surgical exposure (in words)” value is “accumulation of dye in the liver, bladder, and a region of inflammation in the subcutaneous tissue”.

In the case of CF 680R-cytochrome C, the “% Free Dye” value in data set [1] is 5%.

`COCC[N+]1=C(/C=C/C=C/C=C2/N(CCCCCC(=O)ON3C(=O)CCC3=O)c3ccc4c(S(=O)(=O)[O-])cc(S(=O)(=O)O)cc4c3C2(C)C)C(C)(CCCS(=O)(=O)O)c2c1ccc1c(S(=O)(=O)O)cc(S(=O)(=O)O)cc21` (stereo not drawn) [679 Compound 1-NHS]: in data set [2] (setting [4]), the “Em (nm)” value came to 698 nm and the “Ex (nm)” value worked out at 679 nm. In data set [2] (setting [5]), the “Em (nm)” value was found to be 698 nm and the “Ex (nm)” value is reported as 679 nm. In data set [2] (theoretical), the “ε (M^−1cm^−1) (theoretical)” value is on record as 180,000 M^−1cm^−1 and the “ε (M−1cm−1) (theoretical)” value is listed as 180,000 M−1cm−1.

In the case of `COCCOCCOCCOCC[N+]1=C(/C=C/C=C/C=C2/N(CCOCCOCCOCCOCCC(=O)ON3C(=O)CCC3=O)c3ccc4c(S(=O)(=O)[O-])cc(S(=O)(=O)O)cc4c3C2(C)CCOCCOCCOCCOC)C(C)(CCOCCOCCOCCOC)c2c1ccc1c(S(=O)(=O)O)cc(S(=O)(=O)O)cc21` (stereo not drawn) [V08-15173 NHS], in data set [2] (setting [5]), the “Em (nm)” value is on record as 706 nm and the “Ex (nm)” value is given as 684 nm. Besides, the “ε (M^−1cm^−1) (theoretical)” value in data set [2] (theoretical) is recorded as 180,000 M^−1cm^−1.

With Alexa 680-cytochrome C, the “% Free Dye” value in data set [1] is listed as 3%.

With Alexa 680-PDI, the “% Free Dye” value in data set [1] came to 9%.

The values are drawn from US10526317B2, “Benzocyanine compounds” (PIERCE BIOTECHNOLOGY, INC., priority 2012, dated 2020).
